The values that follow are results of earlier work, collected in PMC10957545, “Anti-diabetic and anti-inflammatory bioactive hits from Coriaria intermedia Matsum. stem and Dracontomelon dao (Blanco) Merr. & Rolfe bark through bioassay-guided fractionation and liquid chromatography-tandem mass spectrometry” (Frontiers in Pharmacology, 2024).

For series [1], the system named is lipopolysaccharide (LPS)-induced nitric oxide (NO), prostaglandin E2 (PGE2), and interleukin-6 (IL-6) production. The arrangement: method as in BenSaad et al., 2017. As to conditions: ref BenSaad et al., 2017.
The subject of series [2] is different cancer cell lines. The arrangement: method as in Li et al., 2018. The note with it: both in vitro and in vivo; ref Li et al., 2018.
The test system of series [3] is proinflammatory cytokines and mediators; cyclooxygenase-2 expression. The arrangement: method as in Zhao et al., 2008, as cited in Li et al. (2018). The note with it: ref Zhao et al., 2008, as cited in Li et al. (2018).
Series [4] concerns streptozotocin-induced diabetic rats. The arrangement: method as in Nandini and Naik, 2019. The note with it: treated orally, end of the study; ref Nandini and Naik, 2019.
The subject of series [5] is ovalbumin-induced asthmatic mice. Also on record: method as in Jin and Yi, 2023. As to conditions: via the AMP-activated protein kinase pathway; ref Jin and Yi, 2023.
Series [6] relates to spike receptor binding domain (spike-RBD) of SARS-CoV-2 virus / human angiotensin-converting enzyme 2 (hACE2). The arrangement: method as in Yang et al., 2021. The note with it: dose-dependent manner; ref Yang et al., 2021.
The test system of series [7] is mice fed with a high fat diet (HFD). Also on record: method as in Liao et al., 2022. As to conditions: ref Liao et al., 2022.
Another series has as its system maltase. The arrangement: method as in Kato et al., 2008. As to conditions: at a concentration of 400 µM; ref Kato et al., 2008.
Series [8] relates to advanced glycation end products formation. Also on record: method as in Jung et al., 2012. As to conditions: ref Jung et al., 2012; read-out: inhibition of advanced glycation end products formation, IC50.
The next series deals with sucrase. The arrangement: method as in Kato et al., 2008. As to conditions: at a concentration of 400 µM; ref Kato et al., 2008.
Another series deals with α-amylase. Also on record: method as in Kato et al., 2008. The note with it: at a concentration of 400 µM; ref Kato et al., 2008.
For series [9], the system named is p38, ERK, and PI 3-kinase/Akt and ROS accumulation. Also on record: method as in Moon et al., 2018. As to conditions: ref Moon et al., 2018.
The test system of series [10] is LPS-induced nuclear factor kappa B (NF-κB) activation. The arrangement: method as in Oh et al., 2010. The note with it: ref Oh et al., 2010.
The next series deals with glucose uptake. The arrangement: method as in Xu et al., 2018. The note with it: ref Xu et al., 2018.
For another series, the system named is neuroinflammation. Also on record: method as in Jeon et al., 2020. As to conditions: abscisic acid intake; ref Jeon et al., 2020.
Another series relates to beta pancreatic cells. Also on record: method as in Xu et al., 2018. As to conditions: ref Xu et al., 2018.
The subject of a further series is colon inflammation. The arrangement: method as in Guri et al., 2011. As to conditions: abscisic acid intake; ref Guri et al., 2011.
[11] abbreviates: isolated from Terminalia macroptera leaves, ref Pham et al., 2014.

Values after ≈ are worked out from the molar mass of the structure shown. Where two headings read alike, the source gives them in different places.

On to `O=c1oc2c(O)c(O)cc3c(=O)oc4c(O)c(O)cc1c4c23` [Compound 1, ellagic acid], for which the “effect on LPS-induced NO, PGE2 and IL-6 production” value in [1] is given as “inhibition”. Also, at α-glucosidase (AGLUC) (previously reported, ref You et al., 2012), the “IC50 AGLUC” value was 2.18 [You et al. (2012)] µg/mL.
As a reminder, the IC50 is the concentration that gives 50% inhibition. With `O=C(O[C@@H]1O[C@@H]2COC(=O)c3cc(O)c(O)c(O)c3-c3c(cc(O)c(O)c3O)C(=O)O[C@H]([C@H]1O)[C@@H]2O)c1cc(O)c(O)c(O)c1` [Compound 2, corilagin], in [2], the antitumor activities entry is given as “exhibit antitumor activities”. Also, the “effect on cyclooxygenase-2 expression” value in [3] (protein and gene level) is reported as “reduce”. Besides, the “effect on production of proinflammatory cytokines and mediators” value in [3] is reported as “significantly reduce”. The “fasting blood glucose levels compared to diabetic control rats” value in series [4] was “reduced”. In [5], the “airway inflammation and collagen deposition” value was “reduce”. Besides, the “toxic effects on normal cells or tissues” value in the series on normal cells or tissues is “almost no toxic effects”. In addition, the values for the IC50 at α-glucosidase (AGLUC) (setting [11]) and at 15-lipoxygenase-1 (LOX) (setting [11]) were 2580 ± 80 nM and 41 ± 4 µM, respectively. The “binding of spike-RBD to hACE2” value in series [6] is given as “inhibit”. For the same compound, the “IC50 LOX” value at 15-lipoxygenase-1 (LOX) (µM value given in µg/mL, ref Pham et al., 2014) was 26.01 ± 2.5 [Pham et al. (2014)] µg/mL. For the same compound, the “glucose intolerance and insulin resistance” value in series [7] (HFD-fed mice) was “improve”. Moreover, in series [7] (HFD-fed mice), the plasma lipid concentrations entry was “improved”. Also, the “HFD-induced accumulation of fat in the liver and liver injury” value in series [7] is reported as “reduce”.
In the case of `COc1cc2oc(=O)ccc2cc1O` [Compound 4, isoscopoletin], the “% inhibition of maltase” value in the series on maltase is on record as 32.2%. The IC50 in series [8] was 18.8 ± 0.5 µM; at 15-lipoxygenase-1 (LOX) (ref Deng et al., 2007) it was 15.1 µM. The “% inhibition of sucrase” value with sucrase was 20.9%. Besides, in the series with α-amylase, the “% inhibition of α-amylase” value is on record as 0.2%. Moreover, the “IC50 LOX” value at 15-lipoxygenase-1 (LOX) (µM value given in µg/mL, ref Deng et al., 2007) is 2.902 [Deng et al. (2007)] µg/mL.
Consider `CCCCCCCC/C=C\CCCCCCCC(N)=O` [Compound 6, oleamide], for which the “effect on p38, ERK, and PI 3-kinase/Akt and ROS accumulation” value in [9] is given as “suppression”. The “IC50 AGLUC” value on α-glucosidase (AGLUC) (ref Fang et al., 2022) was 30.69 ± 1.47 [Fang et al. (2022)] µg/mL. Further, the “effect on LPS-induced NF-κB activation” value in series [10] is listed as “inhibition”.
For `CC1=CC(=O)CC(C)(C)[C@@]1(O)/C=C/C(C)=C\C(=O)O` [Compound 9, abscisic acid], in the series on glucose uptake, the “effect on glucose uptake in vitro” value is “regulates”. The effect on neuroinflammation entry in the series with neuroinflammation was “reduces”. Besides, in the series with beta pancreatic cells, the “effect on insulin production in beta pancreatic cells” value is given as “can stimulate”. Moreover, in the series on colon inflammation, the “effect on colon inflammation” value was “reduces”.
Take `Oc1cccc(O)c1O` [Compound 14, pyrogallol]: the “IC50 LOX” value at 15-lipoxygenase-1 (LOX) (mM value given in µg/mL, ref Yasumoto et al. (1970)) is 1.097 × 10^3 [Yasumoto et al. (1970)] µg/mL. The IC50 at 15-lipoxygenase-1 (LOX) (ref Yasumoto, Yamamoto, and Mitsuda, 1970) is 8700 µM.
With `O=c1c(O[C@@H]2O[C@H](CO)[C@H](O)[C@H](O)[C@H]2O)c(-c2ccc(O)c(O)c2)oc2cc(O)cc(O)c12` [hyperin, reference compound], at α-glucosidase (AGLUC) (ref Zhang et al., 2013), the “IC50 AGLUC” value is given as 19.26 µg/mL (≈ 41.5 µM).
